Results as given in US9279811B2, “Methods and kits that identify tumors responsive to Src inhibitors” (OREGON HEALTH & SCIENCE UNIVERSITY, priority 2011, dated 2016).

Key:
Format in all cases: cell-based, human
[1] = system: SN12C cells expressing constitutively stable HIF-2α-P405A, P853A; assay: Cell cycle analysis of HIF-α mutant cell lines, SN12C HIF-2α; settings: 48 hours post treatment
Method: (§1) Transduction of empty retroviral vector (pBabe) served as a negative control.
(§2) Flow Cytometry: Cells were plated at a density such that they were no more than 70% confluent on the day of analysis. […] For propidium iodide staining, cells were trypsinized, collected by centrifugation and washed in PBS prior to fixing in 70% v/v ethanol. Ethanol was removed by washing in PBS. Cells were incubated with 100 μg/ml RNase A (Sigma) for 5 minutes and stained with 50 μg/ml PI for 30 minutes. […] Cells were stained with fluorescein isothiocyanate (FITC)-conjugated anti-BrdU antibodies (BD Biosciences) according to the manufacturer's instructions. Following multiple washes in blocking solution and PBS, cells were stained with 5 μg/ml PI for 30 minutes. The PI or BrdU/PI-stained samples were analyzed by an LSR® FACS (Becton Dickinson) and the cell cycle profile was analyzed with the FlowJo® software (Tree Star Inc.). Phosphoprotein flow cytometry analysis was performed as previously described in Shah N P et al, Cell 14, 485 (2008), incorporated by reference herein.

ACHN shVHL cells = assay: Cell cycle analysis by flow cytometry (PI staining), ACHN shVHL
Method: as §1, §2

SN12C VHL WT cells = assay: Cell cycle analysis by flow cytometry (PI staining), SN12C VHL WT
Method: as §1, §2

[2] = system: ACHN cells expressing constitutively stable HIF-2α-P405A, P853A; assay: Cell cycle analysis of HIF-α mutant cell lines, ACHN HIF-2α; settings: 48 hours post treatment
Method: as §1, §2

SN12C VHL WT = assay: Cell cycle analysis of HIF-α mutant cell lines, SN12C, VHL WT; settings: 48 hours post treatment
Method: as §1, §2

ACHN VHL WT cells = assay: Cell cycle analysis by flow cytometry (PI staining), ACHN VHL WT
Method: as §1, §2

ACHN VHL WT = assay: Cell cycle analysis of HIF-α mutant cell lines, ACHN, VHL WT; settings: 48 hours post treatment
Method: as §1, §2

SN12C shVHL cells = assay: Cell cycle analysis by flow cytometry (PI staining), SN12C shVHL
Method: as §1, §2

VHL-WT SN12C cells = assay: Cell proliferation assay (cell count), SN12C
Excerpt: (§3) Cells were split to sustain log phase growth.

SN12C-shVHL cells = assay: Cell proliferation assay (cell count), SN12C-shVHL
Excerpt: as §3

SMILES: Cc1nc(Nc2ncc(C(=O)Nc3c(C)cccc3Cl)s2)cc(N2CCN(CCO)CC2)n1 [dasatinib]
- Cell population (%) in G1 ([1]; dasatinib 25 nM): 54.8%
- Cell population (%) in G2/M ([1]; dasatinib 25 nM): 20.6%
- Cell population (%) in S ([1]; dasatinib 25 nM): 23.6%
- Cell population (%) in G1 ([1]; dasatinib 50 nM): 55.7%
- Cell population (%) in G2/M ([1]; dasatinib 50 nM): 22.1%
- Cell population (%) in S ([1]; dasatinib 50 nM): 21.4%
- Cell population (%) in G1 ([1]; dasatinib 100 nM): 49.7%
- Cell population (%) in G2/M ([1]; dasatinib 100 nM): 21.3%
- Cell population (%) in S ([1]; dasatinib 100 nM): 27.8%
- Cell population (%) in G1 (ACHN shVHL cells; dasatinib 25 nM): 50.2%
- Cell population (%) in G2/M (ACHN shVHL cells; dasatinib 25 nM): 9.8%
- Cell population (%) in S (ACHN shVHL cells; dasatinib 25 nM): 37.4%
- Cell population (%) in G1 (ACHN shVHL cells; dasatinib 50 nM): 47.6%
- Cell population (%) in G2/M (ACHN shVHL cells; dasatinib 50 nM): 14.2%
- Cell population (%) in S (ACHN shVHL cells; dasatinib 50 nM): 36.7%
- Cell population (%) in G1 (ACHN shVHL cells; dasatinib 100 nM): 46.1%
- Cell population (%) in G2/M (ACHN shVHL cells; dasatinib 100 nM): 10.9%
- Cell population (%) in S (ACHN shVHL cells; dasatinib 100 nM): 40.8%
- Cell population (%) in G1 (SN12C VHL WT cells; dasatinib 25 nM): 59.5%
- Cell population (%) in G2/M (SN12C VHL WT cells; dasatinib 25 nM): 15.0%
- Cell population (%) in S (SN12C VHL WT cells; dasatinib 25 nM): 23.9%
- Cell population (%) in G1 (SN12C VHL WT cells; dasatinib 50 nM): 63.6%
- Cell population (%) in G2/M (SN12C VHL WT cells; dasatinib 50 nM): 11.7%
- Cell population (%) in S (SN12C VHL WT cells; dasatinib 50 nM): 22.8%
- Cell population (%) in G1 (SN12C VHL WT cells; dasatinib 100 nM): 70.0%
- Cell population (%) in G2/M (SN12C VHL WT cells; dasatinib 100 nM): 11.7%
- Cell population (%) in S (SN12C VHL WT cells; dasatinib 100 nM): 16.3%
- Cell population (%) in G1 ([2]; dasatinib 25 nM): 53.9%
- Cell population (%) in G2/M ([2]; dasatinib 25 nM): 16.1%
- Cell population (%) in S ([2]; dasatinib 25 nM): 27.7%
- Cell population (%) in G1 ([2]; dasatinib 50 nM): 51.9%
- Cell population (%) in G2/M ([2]; dasatinib 50 nM): 19.3%
- Cell population (%) in S ([2]; dasatinib 50 nM): 27.0%
- Cell population (%) in G1 ([2]; dasatinib 100 nM): 55.3%
- Cell population (%) in G2/M ([2]; dasatinib 100 nM): 17.7%
- Cell population (%) in S ([2]; dasatinib 100 nM): 24.2%
- Cell population (%) in G1 (SN12C VHL WT; dasatinib 25 nM): 60.1%
- Cell population (%) in G2/M (SN12C VHL WT; dasatinib 25 nM): 13.3%
- Cell population (%) in S (SN12C VHL WT; dasatinib 25 nM): 25.1%
- Cell population (%) in G1 (SN12C VHL WT; dasatinib 50 nM): 59.2%
- Cell population (%) in G2/M (SN12C VHL WT; dasatinib 50 nM): 11.4%
- Cell population (%) in S (SN12C VHL WT; dasatinib 50 nM): 27.6%
- Cell population (%) in G1 (SN12C VHL WT; dasatinib 100 nM): 60.4%
- Cell population (%) in G2/M (SN12C VHL WT; dasatinib 100 nM): 11.1%
- Cell population (%) in S (SN12C VHL WT; dasatinib 100 nM): 26.5%
- Cell population (%) in G1 (ACHN VHL WT cells; dasatinib 25 nM): 59.7%
- Cell population (%) in G2/M (ACHN VHL WT cells; dasatinib 25 nM): 12.6%
- Cell population (%) in S (ACHN VHL WT cells; dasatinib 25 nM): 25.8%
- Cell population (%) in G1 (ACHN VHL WT cells; dasatinib 50 nM): 62.1%
- Cell population (%) in G2/M (ACHN VHL WT cells; dasatinib 50 nM): 16.0%
- Cell population (%) in S (ACHN VHL WT cells; dasatinib 50 nM): 17.6%
- Cell population (%) in G1 (ACHN VHL WT cells; dasatinib 100 nM): 64.5%
- Cell population (%) in G2/M (ACHN VHL WT cells; dasatinib 100 nM): 14.9%
- Cell population (%) in S (ACHN VHL WT cells; dasatinib 100 nM): 15.7%
- Cell population (%) in G1 (ACHN VHL WT; dasatinib 25 nM): 59.2%
- Cell population (%) in G2/M (ACHN VHL WT; dasatinib 25 nM): 17.1%
- Cell population (%) in S (ACHN VHL WT; dasatinib 25 nM): 21.6%
- Cell population (%) in G1 (ACHN VHL WT; dasatinib 50 nM): 56.4%
- Cell population (%) in G2/M (ACHN VHL WT; dasatinib 50 nM): 16.0%
- Cell population (%) in S (ACHN VHL WT; dasatinib 50 nM): 25.1%
- Cell population (%) in G1 (ACHN VHL WT; dasatinib 100 nM): 60.1%
- Cell population (%) in G2/M (ACHN VHL WT; dasatinib 100 nM): 22.0%
- Cell population (%) in S (ACHN VHL WT; dasatinib 100 nM): 17.6%
- Cell population (%) in G1 (SN12C shVHL cells; dasatinib 25 nM): 45.2%
- Cell population (%) in G2/M (SN12C shVHL cells; dasatinib 25 nM): 17.5%
- Cell population (%) in S (SN12C shVHL cells; dasatinib 25 nM): 36.9%
- Cell population (%) in G1 (SN12C shVHL cells; dasatinib 50 nM): 45.4%
- Cell population (%) in G2/M (SN12C shVHL cells; dasatinib 50 nM): 15.7%
- Cell population (%) in S (SN12C shVHL cells; dasatinib 50 nM): 38.5%
- Cell population (%) in G1 (SN12C shVHL cells; dasatinib 100 nM): 46.1%
- Cell population (%) in G2/M (SN12C shVHL cells; dasatinib 100 nM): 18.5%
- Cell population (%) in S (SN12C shVHL cells; dasatinib 100 nM): 35.3%

SMILES: Cc1ccc(NC(=O)c2ccc(CN3CCN(C)CC3)cc2)cc1Nc1nccc(-c2cccnc2)n1 [imatinib]
- effect on proliferation (VHL-WT SN12C cells): had no effect on the proliferation
- effect on proliferation (SN12C-shVHL cells): had no effect on the proliferation
